Laboratory results: patent EP0223890B1, “Aryl derivatives of pyrrole, their obtention and their use in immunology” (Albert ROLLAND S.A. Société dite, priority 1985, dated 1987)

What was measured:
[1] = test system: cellules spléniques de souris C57BL/6J; experiment: rosette test in vitro (sheep red blood cells with mouse spleen cells); type: cell-based; conditions: for activité inhibitrice sur la formation des rosettes (comparison in words): compared with acide N-méthyl-4-(naphtoyl-1)-pyrrolyl-2-carboxylique; for activité immuno-stimulante (stimulation de la formation des rosettes): result in words
From the text: A) Activité des composés selon l'invention sur le test des rosettes in vitro
L'étude a été réalisée sur globules rouges de mouton avec des cellules spléniques de souris C57BL/6J.

[2] = test system: transformation lymphoblastique; experiment: lymphoblastic transformation test; type: cell-based; conditions: low concentration; vis-à-vis de la Concanavaline A and LPS (Lipopolysaccharides de E. Coli)
Description: B) Activité des composés selon l'invention sur le test de transformation lymphoblastique
Sur le test de transformation lymphoblastique, les composés selon l'invention montrent une activité antimitotique, aux doses allant de 5 à 50 µg/ml. […] La mise en évidence d'une activité immuno-stimulante pour certains de ces composés permet d'envisager une autre application thérapeutique.

Cn1cc(C(=O)c2cc([S+](C)[O-])cc3ccccc23)cc1C(=O)O (centres unmarked) [Acide N-méthyl-4-(3-méthylsulfinylnaphtoyl-1)-pyrrolyl-2-carboxylique]
activité inhibitrice sur la formation des rosettes (comparison in words) [1]: activité comparable à celle de l'acide N-méthyl-4-(naphtoyl-1 )-pyrrolyl-2-carboxylique | activité stimulante à faible concentration [2]: activité stimulante

O=C(O)c1cc(C(=O)c2cccc3ccccc23)c[nH]1 [acide 4-(naphtoyl-1)pyrrolyl-2-carboxylique]
activité inhibitrice sur la formation des rosettes (comparison in words) [1]: activité inhibitrice du même ordre que celle du dérivé N-méthylé | activité stimulante à faible concentration [2]: activité stimulante

Cn1cc(C(=O)c2cccc3c2C=CC(O)C3O)cc1C(=O)O (centres unmarked) [acide N-méthyl-4-(5,6-dihydroxy-5,6-dihydronaphtoyl-1)-pyrrolyl-2-carboxylique]
activité inhibitrice sur la formation des rosettes (comparison in words) [1]: activité comparable à celle de l'acide N-méthyl-4-(naphtoyl-1 )-pyrrolyl-2-carboxylique

Cn1cc(C(=O)c2cccc3c(O)cccc23)cc1C(=O)O [dérivé N-méthyl-5-hydroxylé, Acide N-méthyl-4-(5-hydroxy-naphtoyl-1)-pyrrolyl-2-carboxylique]
activité inhibitrice sur la formation des rosettes (comparison in words) [1]: inhibiteur à un degré identique | activité immuno-stimulante (stimulation de la formation des rosettes) [1]: activité immuno-stimulante à faible concentration

Cn1cc(C(=O)c2cc(O)cc3ccccc23)cc1C(=O)O [dérivé N-méthyl-(3-hydroxy-naphtoyl-1), Acide N-méthyl-4-(3-hydroxy-naphtoyl-1)-pyrrolyl-2-carboxylique]
activité immuno-stimulante (stimulation de la formation des rosettes) [1]: stimuler la formation des rosettes
